Assay results taken from ChEMBL document CHEMBL1201862, “PubChem BioAssay data set” (2004).
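Dose response: 5 concentrations. Exposure: 48 h. Format: 96-well plates. Endpoint: linear interpolation; highest concentration if not reached. GI50 = concentration required for 50% inhibition of growth.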 Calls of active or inactive are those of the source. Cut-off read from the data, not from the text of the source: active = GI50 up to about 1.1 µM and inactive = higher.

How the values were obtained:
Assay in all cases: DTP human tumour cell line panel, 48 h
SK-MEL-28 = tested on: SK-MEL-28
Hs-578T = tested on: Hs-578T
RXF 393 = tested on: RXF 393
CAKI-1 = tested on: CAKI-1
UACC-257 = tested on: UACC-257
SK-MEL-5 = tested on: SK-MEL-5
MDA-N = tested on: MDA-N
NCI/ADR-RES = tested on: NCI/ADR-RES
SN12C = tested on: SN12C
NCI-H23 = tested on: NCI-H23
SNB-19 = tested on: SNB-19
K562 = tested on: K562
M14 = tested on: M14
RPMI-8226 = tested on: RPMI-8226
BT-549 = tested on: BT-549
SK-OV-3 = tested on: SK-OV-3
NCI-H226 = tested on: NCI-H226
HL-60 = tested on: HL-60
HOP-92 = tested on: HOP-92

Row | SMILES | GI50 (SK-MEL-28) | GI50 (Hs-578T) | GI50 (RXF 393) | GI50 (CAKI-1) | GI50 (UACC-257) | GI50 (SK-MEL-5) | GI50 (MDA-N) | GI50 (NCI/ADR-RES) | GI50 (SN12C) | GI50 (NCI-H23) | GI50 (SNB-19) | GI50 (K562) | GI50 (M14) | GI50 (RPMI-8226) | GI50 (BT-549) | GI50 (SK-OV-3) | GI50 (NCI-H226) | GI50 (HL-60) | GI50 (HOP-92)
1 | S=c1c2cn[nH]c2nc2scc(-c3ccc(Cl)cc3)n12 | 18.1 µM (inactive) | 8.73 µM (inactive) | 4.04 µM (inactive) | 9.59 µM (inactive) | 54.6 µM (inactive) | 17.6 µM (inactive) | 4.36 µM (inactive) | 13.8 µM (inactive) | 16.6 µM (inactive) | 13.8 µM (inactive) | 23.6 µM (inactive) | 10.9 µM (inactive) | 17 µM (inactive) | 23.6 µM (inactive) | 10.5 µM (inactive) | 18.1 µM (inactive) |  |  | 
2 | CCOC(CN(C)C(=O)OCC(Cl)(Cl)Cl)OCC | > 100 µM (inactive) | 29.7 µM (inactive) | 30.7 µM (inactive) | 34.1 µM (inactive) | 33.4 µM (inactive) | 33.7 µM (inactive) | 81.3 µM (inactive) | 39.4 µM (inactive) | > 100 µM (inactive) | 59.7 µM (inactive) | > 100 µM (inactive) | 39.9 µM (inactive) | 69 µM (inactive) |  | 82.8 µM (inactive) | > 100 µM (inactive) | 54.6 µM (inactive) | 21.6 µM (inactive) | 33.9 µM (inactive)
3 | COc1cc(C)c(C2NC(=O)c3ccccc3N2)cc1C (centres undefined) | 0.59 µM (active) | 0.234 µM (active) | 0.358 µM (active) | 0.252 µM (active) | 0.47 µM (active) | 0.135 µM (active) | 0.0283 µM (active) | 0.149 µM (active) | 0.692 µM (active) | 2.51 µM (inactive) | 0.468 µM (active) | 0.125 µM (active) | 0.316 µM (active) | 0.0931 µM (active) | 0.476 µM (active) | 0.378 µM (active) | 0.652 µM (active) | 0.1 µM (active) | 
4 | CCCc1cc(=O)oc2c3c(c4c(c12)OC(C)(C)CC4)O[C@H](C)[C@@H](C)[C@H]3O |  | 22.6 µM (inactive) | 21.3 µM (inactive) | 20.5 µM (inactive) | 14.8 µM (inactive) | 15.1 µM (inactive) | 5.56 µM (inactive) | 11.2 µM (inactive) | 16.4 µM (inactive) | 16 µM (inactive) | 16.6 µM (inactive) | 2.52 µM (inactive) | 16.1 µM (inactive) | 4.82 µM (inactive) | 13.4 µM (inactive) | 17.5 µM (inactive) | 15.6 µM (inactive) |  | 18.3 µM (inactive)
5 | COC(=O)C(C)Sc1nc2cc(Cl)ccc2s1 (centres undefined) | > 100 µM (inactive) | > 100 µM (inactive) | > 100 µM (inactive) | > 100 µM (inactive) | > 100 µM (inactive) | > 100 µM (inactive) | > 100 µM (inactive) | > 100 µM (inactive) | > 100 µM (inactive) | > 100 µM (inactive) | > 100 µM (inactive) | 78.9 µM (inactive) | > 100 µM (inactive) | > 100 µM (inactive) | > 100 µM (inactive) | > 100 µM (inactive) | > 100 µM (inactive) |  | > 100 µM (inactive)
6 | COC(=O)c1sc2c(Cl)c(Cl)sc2c1Cl | > 100 µM (inactive) | > 100 µM (inactive) | > 100 µM (inactive) | > 100 µM (inactive) | > 100 µM (inactive) | > 100 µM (inactive) | > 100 µM (inactive) | > 100 µM (inactive) | > 100 µM (inactive) | > 100 µM (inactive) | > 100 µM (inactive) | > 100 µM (inactive) | > 100 µM (inactive) |  | > 100 µM (inactive) | > 100 µM (inactive) | > 100 µM (inactive) | > 100 µM (inactive) | > 100 µM (inactive)
7 | CC(C)c1cc(C(C)C)c(S(=O)(=O)N/N=C2\CC3CCC2(C)C3(C)C)c(C(C)C)c1 (centres undefined) | 31.8 µM (inactive) | 29.7 µM (inactive) | 11.7 µM (inactive) | 20.2 µM (inactive) | 4.84 µM (inactive) | 14.5 µM (inactive) | 15.1 µM (inactive) | 20.8 µM (inactive) | 12.4 µM (inactive) | 17.4 µM (inactive) | 27.5 µM (inactive) | 8.53 µM (inactive) | 51.6 µM (inactive) | 3.08 µM (inactive) | > 100 µM (inactive) | 55.3 µM (inactive) | 16.9 µM (inactive) |  | 
8 | O=C(/C=C/c1ccc(O)c(O)c1)OCC(OC(=O)/C=C/c1ccc(O)c(O)c1)C(=O)O (centres undefined) | > 100 µM (inactive) | > 100 µM (inactive) | > 100 µM (inactive) | > 100 µM (inactive) | > 100 µM (inactive) | > 100 µM (inactive) | > 100 µM (inactive) | > 100 µM (inactive) | > 100 µM (inactive) | > 100 µM (inactive) | > 100 µM (inactive) | > 100 µM (inactive) | > 100 µM (inactive) | > 100 µM (inactive) | > 100 µM (inactive) | > 100 µM (inactive) | > 100 µM (inactive) |  | > 100 µM (inactive)
9 | NC(CCC(=O)O)C(=O)N1CCN(c2nc(N3CCCC3)c3nc(Cl)c(NCc4ccccc4)nc3n2)CC1 (centres undefined) | 9.48 µM (inactive) | 20 µM (inactive) |  | 17.8 µM (inactive) | 14.5 µM (inactive) | 8.04 µM (inactive) | 10.1 µM (inactive) | 20.8 µM (inactive) | 15.8 µM (inactive) | 15.4 µM (inactive) | 17.5 µM (inactive) | 12.7 µM (inactive) | 10 µM (inactive) | 5.79 µM (inactive) | 12.1 µM (inactive) | 18 µM (inactive) | 12.3 µM (inactive) | 7.13 µM (inactive) | 15.8 µM (inactive)
10 | COC(=O)C(CNC(=O)/C=C/c1ccc(OC)c(OC)c1)NC(=O)/C=C/c1ccc(OC)c(OC)c1 (centres undefined) | 67.3 µM (inactive) | > 100 µM (inactive) | > 100 µM (inactive) | > 100 µM (inactive) | > 100 µM (inactive) | > 100 µM (inactive) | > 100 µM (inactive) | > 100 µM (inactive) | > 100 µM (inactive) | > 100 µM (inactive) | > 100 µM (inactive) | > 100 µM (inactive) | > 100 µM (inactive) | > 100 µM (inactive) | > 100 µM (inactive) | > 100 µM (inactive) | > 100 µM (inactive) |  | > 100 µM (inactive)
11 | O=C1NC(O)c2ccccc2O1 (centres undefined) | > 100 µM (inactive) | > 100 µM (inactive) | > 100 µM (inactive) | > 100 µM (inactive) | > 100 µM (inactive) | > 100 µM (inactive) | > 100 µM (inactive) | > 100 µM (inactive) | > 100 µM (inactive) | > 100 µM (inactive) | > 100 µM (inactive) | > 100 µM (inactive) | > 100 µM (inactive) |  | > 100 µM (inactive) | > 100 µM (inactive) | > 100 µM (inactive) | > 100 µM (inactive) | > 100 µM (inactive)
12 | CC(O)CN1c2ccccc2Sc2ccccc21 (centres undefined) | > 100 µM (inactive) | > 100 µM (inactive) | > 100 µM (inactive) | > 100 µM (inactive) | > 100 µM (inactive) | > 100 µM (inactive) | > 100 µM (inactive) | > 100 µM (inactive) | > 100 µM (inactive) | > 100 µM (inactive) | > 100 µM (inactive) | > 100 µM (inactive) | > 100 µM (inactive) |  | > 100 µM (inactive) | > 100 µM (inactive) | > 100 µM (inactive) |  | > 100 µM (inactive)
13 | OC1(C2(c3ccc(Cl)cc3)CCCC2)c2ccccc2C2=NCCN21 (centres undefined) | 15.3 µM (inactive) | 36.3 µM (inactive) | 1.68 µM (inactive) | 14.8 µM (inactive) | 14.2 µM (inactive) | 12.4 µM (inactive) | 16.1 µM (inactive) | 17.1 µM (inactive) | 17.5 µM (inactive) | 18.7 µM (inactive) | 16.4 µM (inactive) | 4.81 µM (inactive) | 14.2 µM (inactive) |  | 16.8 µM (inactive) | 18.8 µM (inactive) | 17.1 µM (inactive) | 14.4 µM (inactive) | 13.4 µM (inactive)
14 | Cc1c(/C=N/NC(=S)Nc2ccccc2Cl)c(=O)n(-c2ccccc2)n1C | 58.6 µM (inactive) | 24 µM (inactive) | 16.1 µM (inactive) | 19.7 µM (inactive) | 34.2 µM (inactive) | 32.7 µM (inactive) | 87.3 µM (inactive) | 20.2 µM (inactive) | 44.2 µM (inactive) |  | 32.6 µM (inactive) | 27.9 µM (inactive) | 60.3 µM (inactive) | 48.9 µM (inactive) | 54.2 µM (inactive) | 31 µM (inactive) | 68.5 µM (inactive) | 22.4 µM (inactive) | 
15 | O=C(O)[C@H](CCC[C@H]1C(=O)O[C@H](c2ccccc2)[C@H](c2ccccc2)N1C(=O)OCc1ccccc1)N[C@@H](c1ccccc1)[C@H](O)c1ccccc1 | 19.8 µM (inactive) | 25.4 µM (inactive) | 22.6 µM (inactive) | > 100 µM (inactive) | 39.7 µM (inactive) | 18.5 µM (inactive) | 21.7 µM (inactive) | > 100 µM (inactive) | 20.7 µM (inactive) | 28.4 µM (inactive) | 30.3 µM (inactive) | 36.8 µM (inactive) | > 100 µM (inactive) | 22.4 µM (inactive) | 27 µM (inactive) | 61.8 µM (inactive) |  | 17.4 µM (inactive) | 22.3 µM (inactive)
